Results reported in the supplement of paper PMC4862054.

Legend:
Test in all cases: normalised response (% of control), CellTiter-Glo; higher = more viable cells (100 = DMSO, 0 = benzethonium chloride kill control)
Details in all cases: incubation time: 72 h
[1] = system: HCC1599
In short: (§1)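 Normalised signals at single concentrations make up the values. They come from breast cancer cell lines seeded (20 µl suspension) into 384-well plates with compound at 5 concentrations in 10-fold steps over a compound-specific 10,000-fold range, incubated 72 h, and read for CellTox Green fluorescence then CellTiter-Glo luminescence. Each plate was normalised to 0.1 % DMSO (100) and a positive kill control (0).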

[2] = system: CAL-148
In short: as §1

[3] = system: MDA-MB-453
In short: as §1

[4] = system: MDA-MB-231
In short: as §1

[5] = system: CAL-120
In short: as §1

[6] = system: BT-549
In short: as §1

[7] = system: MCF-10A
In short: as §1

[8] = system: BT-474
In short: as §1

[9] = system: MDA-MB-436
In short: as §1

[10] = system: CAL-85-1
In short: as §1

[11] = system: CAL-51
In short: as §1

[12] = system: DU-4475
In short: as §1

[13] = system: HCC1143
In short: as §1

[14] = system: MFM-223
In short: as §1

[15] = system: HDQ-P1
In short: as §1

[16] = system: MDA-MB-468
In short: as §1

[17] = system: Hs578T
In short: as §1

[18] = system: SK-BR-3
In short: as §1

[19] = system: HCC1937
In short: as §1

Row | SMILES | normalised response [1] | normalised response [2] | normalised response [3] | normalised response [4] | normalised response [5] | normalised response [6] | normalised response [7] | normalised response [8] | normalised response [9] | normalised response [10] | normalised response [11] | normalised response [12] | normalised response [13] | normalised response [14] | normalised response [15] | normalised response [16] | normalised response [17] | normalised response [18] | normalised response [19]
1 | Cn1c(=O)c(F)c(Nc2ccc(I)cc2F)c2c(=O)n(C[C@@H](O)CO)cnc21 [TAK-733] (1 nM) | 102% | 105% | 98.7% | 108% | 95% | 99.2% | 83% | 45.1% | 98.8% | 98.3% | 86.9% | 92.4% | 103% | 113% | 83.7% | 100% | 98.6% | 104% | 98.1%
2 | COc1ncc(-c2ccc3nccc(-c4ccnnc4)c3c2)cc1NS(=O)(=O)c1ccc(F)cc1F (1 nM) | 95.3% | 105% | 98.2% | 92.9% | 93% | 93.5% | 94.2% | 91.6% | 93.1% | 101% | 111% | 103% | 101% | 109% | 81.3% | 109% | 101% | 84.6% | 95.3%
3 | COC(=O)C[C@](O)(CCCC(C)(C)O)C(=O)O[C@@H]1C(OC)=C[C@]23CCCN2CCc2cc4c(cc2[C@H]13)OCO4 [Omacetaxine] (10 nM) | 92.5% | 115% | 109% | 105% | 103% | 104% | 123% | 103% | 88.7% | 98.6% | 94% | 75.5% | 109% | 106% | 96.1% | 101% | 108% | 110% | 100%
4 | CC(C)(C)c1cc(NC(=O)Nc2ccc(-c3cn4c(n3)sc3cc(OCCN5CCOCC5)ccc34)cc2)no1 [Quizartinib] (1 nM) | 116% | 109% | 104% | 106% | 111% | 98.8% | 110% | 118% | 104% | 106% | 112% | 104% | 110% | 111% | 98.5% | 104% | 97.2% | 56.6% | 101%
5 | COC1=C2C[C@@H](C)C[C@H](OC)[C@H](O)[C@@H](C)/C=C(\C)[C@H](OC(N)=O)[C@@H](OC)/C=C\C=C(/C)C(=O)NC(=CC1=O)C2=O [Geldanamycin] (10 nM) | 101% | 113% | 106% | 105% | 102% | 97.3% | 106% | 106% | 104% | 99.6% | 112% | 105% | 101% | 105% | 100% | 105% | 108% | 110% | 99.9%
6 | O=C(c1ccc(OCCN2CCCCC2)cc1)c1c(-c2ccc(O)cc2)sc2cc(O)ccc12 [Raloxifene] (10 nM) | 100% | 106% | 94.7% | 99.8% | 98.7% | 94.8% | 106% | 105% | 101% | 99% | 68.2% | 107% | 115% | 105% | 107% | 112% | 105% | 107% | 106%
7 | CCS(=O)(=O)c1cccc(-c2cc(C(=O)NC3CCN(C)CC3)c(C)c3[nH]c4ncc(C)cc4c23)c1 [TAK-901] (1 nM) | 117% | 108% | 97% | 101% | 98.1% | 101% | 113% | 98.5% | 95.5% | 98% | 87.8% | 108% | 108% | 112% | 96% | 110% | 103% | 100% | 94.2%
8 | CCOc1cc2ncc(C#N)c(Nc3ccc(OCc4ccccn4)c(Cl)c3)c2cc1NC(=O)/C=C/CN(C)C [Neratinib] (1 nM) | 99.2% | 107% | 99.5% | 107% | 96.9% | 96.3% | 109% | 100% | 97.1% | 94.5% | 80% | 105% | 101% | 106% | 93.8% | 101% | 104% | 73.3% | 96.7%
9 | COC1=CC(c2cc3ccccc3[nH]2)=N/C1=C\c1[nH]c(C)cc1C [Obatoclax] (10 nM) | 92.2% | 89.9% | 104% | 94.6% | 98.8% | 96.9% | 94.7% | 95% | 91% | 93.6% | 121% | 100% | 95.5% | 91.4% | 92.6% | 98.9% | 99.4% | 90.2% | 94.6%
10 | C[C@@H]1CCN(C(=O)CC#N)C[C@@H]1N(C)c1ncnc2[nH]ccc12 [Tofacitinib] (0.5 nM) | 102% | 113% | 103% | 104% | 99% | 95.6% | 111% | 106% | 102% | 107% | 71.3% | 117% | 98% | 103% | 103% | 103% | 100% | 113% | 97.3%
11 | CN1CCN(c2ccc3nc(-c4c(N)c5c(F)cccc5[nH]c4=O)[nH]c3c2)CC1 [Dovitinib] (10 nM) | 102% | 94.9% | 88.4% | 98.6% | 95.6% | 91.8% | 98.3% | 102% | 98.1% | 91.5% | 77.6% | 97.8% | 102% | 95.1% | 96.1% | 97% | 97.6% | – | 101%
